Laboratory results taken from patent publication US6191115A, “C-terminus modified heptapeptide LHRH analogs” (Abbott Laboratories, priority 1999, dated 2001).
Non-standard residues stand in square brackets, D forms with d. Residues, ends and D or L forms follow the SMILES beside them. *: point of attachment. dPhe(4-Cl) = N[C@H](Cc1ccc(Cl)cc1)C(=O)O; d2Nal = N[C@H](Cc1ccc2ccccc2c1)C(=O)O; NMeY = CN[C@@H](Cc1ccc(O)cc1)C(=O)O; d3Pal = N[C@H](Cc1cccnc1)C(=O)O; Nicotinoyl = O=C(c1cccnc1)*; NH(CH2)4OH = OCCCCN*

Target: T1, LH release from rat pituitary cells (Rattus norvegicus, UniProt P30969)
T1 sequence (P30969 1-327): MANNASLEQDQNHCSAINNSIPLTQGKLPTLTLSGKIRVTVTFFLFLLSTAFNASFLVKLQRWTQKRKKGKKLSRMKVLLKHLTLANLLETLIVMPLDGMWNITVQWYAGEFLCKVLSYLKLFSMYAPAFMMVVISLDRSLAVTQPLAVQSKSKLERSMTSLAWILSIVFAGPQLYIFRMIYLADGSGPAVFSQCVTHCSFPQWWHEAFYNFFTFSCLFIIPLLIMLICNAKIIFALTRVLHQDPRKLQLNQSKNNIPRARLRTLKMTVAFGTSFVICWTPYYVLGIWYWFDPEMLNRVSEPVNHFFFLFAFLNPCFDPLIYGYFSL
Experiment: in vitro inhibition of LH release from rat pituitary cells (pA2)
Format: cell-based
Settings: pA2 = negative logarithm of antagonist concentration required to shift the response curve of the agonist leuprolide to two-fold higher concentration
Protocol: Representative compounds of the present invention were evaluated in vitro for inhibition of LH release from rat pituitary cells (pA2). Methods for the assay procedures arc described by F. Haviv, et al. J. Med. Chem., 32:2340-2344 (1989). Values of pA2 are the negative logarithms of the concentration of the particular antagonist test compound required to shift the response curve produced by the agonist leuprolide to two-fold higher concentration. Typically values of 7.0 or greater are indicative of good LHRH antagonist potency, with values of 8.0 or greater being preferred. Leuprolide LHRH agonist, disclosed and claimed in U.S. Pat. No. 4,005,063, has the structure 5-oxo-Pro^1 -His^2 -Trp^3 -Ser^4 -Tyr^5 -D-Leu^6 -Leu^7 -Arg^8 -Pro^9 -NHEt.

For `CC(=O)N[C@H](Cc1ccc2ccccc2c1)C(=O)N[C@H](Cc1ccc(Cl)cc1)C(=O)N[C@H](Cc1cccnc1)C(=O)N[C@@H](CO)C(=O)N(C)[C@@H](Cc1ccc(O)cc1)C(=O)N[C@H](CCCCNC(=O)c1cccnc1)C(=O)N[C@@H](CC(C)C)C(=O)NCCCCO` [Example 34, NAcD2Nal-D4ClPhe-D3Pal-Ser-NMeTyr-DLys(Nic)-Leu-NH--CH2 CH2 CH2 CH2 OH] (Ac-[d2Nal][dPhe(4-Cl)][d3Pal]S[NMeY][dK](Nicotinoyl)L-{NH(CH2)4OH}), the “LHRH antagonist potency (pA2)” value was 8.71.
